# Experimental data from patent publication US20240199623A1 (ILDONG PHARMACEUTICAL CO., LTD., priority 2020, published 2024).
# pEC50: −log10 of the molar value.
# Target: human wild type-CFTR (Homo sapiens, UniProt P13569)
# Test: Cell-based YFP assay
# Parameters: expressed in transfected cells; host or cells: CHO-K1 (Chinese hamster ovary)
# Conditions: CHO-K1 cells expressing human wild type-CFTR and YFP-H148Q/I152L; forskolin 20 μM = 100% activity; read-out: Cell-based YFP Assay (EC50) Concentration Range
# Method in brief: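 I⁻-driven YFP fluorescence quenching at 37 °C: 2 s baseline, addition of 140 mM iodide solution, then 14 s of readings at 0.4 s intervals. Cells were CHO-K1 expressing human wild-type CFTR plus YFP-H148Q/I152L. EC50 derived from averaged triplicates.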
# Sequence of human wild type-CFTR (P13569 whole entry): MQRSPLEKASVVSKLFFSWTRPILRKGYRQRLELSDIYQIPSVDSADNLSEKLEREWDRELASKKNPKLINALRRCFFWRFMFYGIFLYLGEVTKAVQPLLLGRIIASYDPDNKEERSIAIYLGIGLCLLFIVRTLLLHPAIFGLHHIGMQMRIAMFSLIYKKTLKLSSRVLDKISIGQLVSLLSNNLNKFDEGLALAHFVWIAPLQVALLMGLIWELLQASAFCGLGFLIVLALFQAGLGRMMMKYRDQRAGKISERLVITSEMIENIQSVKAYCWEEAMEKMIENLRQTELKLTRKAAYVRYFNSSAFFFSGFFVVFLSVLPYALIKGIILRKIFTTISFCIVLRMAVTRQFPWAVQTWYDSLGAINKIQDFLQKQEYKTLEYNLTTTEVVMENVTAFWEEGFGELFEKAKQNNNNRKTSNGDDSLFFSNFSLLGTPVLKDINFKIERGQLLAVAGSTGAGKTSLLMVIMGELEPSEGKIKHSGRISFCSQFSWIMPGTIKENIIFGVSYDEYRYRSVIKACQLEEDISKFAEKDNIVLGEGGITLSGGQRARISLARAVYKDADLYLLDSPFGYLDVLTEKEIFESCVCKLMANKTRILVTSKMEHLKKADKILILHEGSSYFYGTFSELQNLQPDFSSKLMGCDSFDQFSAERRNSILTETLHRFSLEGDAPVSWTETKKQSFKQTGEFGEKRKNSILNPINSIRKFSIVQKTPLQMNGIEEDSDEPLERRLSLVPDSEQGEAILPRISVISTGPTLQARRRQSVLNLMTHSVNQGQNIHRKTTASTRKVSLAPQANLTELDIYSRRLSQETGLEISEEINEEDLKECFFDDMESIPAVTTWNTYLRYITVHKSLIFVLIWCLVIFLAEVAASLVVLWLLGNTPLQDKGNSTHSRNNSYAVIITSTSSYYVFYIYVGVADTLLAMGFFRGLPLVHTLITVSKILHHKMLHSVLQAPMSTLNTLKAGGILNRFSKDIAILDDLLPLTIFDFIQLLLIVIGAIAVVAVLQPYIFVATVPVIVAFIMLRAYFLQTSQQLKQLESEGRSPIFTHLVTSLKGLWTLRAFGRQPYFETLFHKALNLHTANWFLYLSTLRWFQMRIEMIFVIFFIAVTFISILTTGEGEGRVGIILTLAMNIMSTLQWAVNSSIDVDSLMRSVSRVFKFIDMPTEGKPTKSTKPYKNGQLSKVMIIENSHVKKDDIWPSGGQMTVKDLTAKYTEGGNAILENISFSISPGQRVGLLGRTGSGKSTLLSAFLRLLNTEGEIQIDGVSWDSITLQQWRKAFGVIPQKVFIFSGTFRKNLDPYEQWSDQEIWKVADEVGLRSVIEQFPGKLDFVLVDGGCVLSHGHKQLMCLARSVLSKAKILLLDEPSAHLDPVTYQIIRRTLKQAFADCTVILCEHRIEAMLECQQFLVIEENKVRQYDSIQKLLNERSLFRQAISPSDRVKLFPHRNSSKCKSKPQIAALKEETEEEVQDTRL
row,SMILES,pEC50
1,"COc1ccc(-c2ccnc3cc(C(=O)Nc4ccc(C(=O)OCCCN5CCN(C)CC5)cn4)nn23)cc1OC [Compound 189, 3-(4-methylpiperazin-1-yl) propyl 6-(7-(3,4-dimethoxyphenyl)pyrazolo [1,5-a]pyrimidine-2-carboxamido)nicotinate]",> 6.70
2,"CCOc1ccc(NC(=O)c2cc3nccc(-c4ccc(OC)cc4F)n3n2)cc1 [Compound 296, N-(4-ethoxyphenyl)-7-(2-fluoro-4-methoxyphenyl)pyrazolo [1,5-a]pyrimidine-2-carboxamide]",≤ 5.70
3,"COc1ccc(-c2ccnc3cc(C(=O)Nc4ccc(O)cn4)nn23)cc1OC [Compound 327, 7-(3,4-dimethoxyphenyl)-N-(5-hydroxypyridin-2-yl)pyrazolo[1,5-a] pyrimidine-2-carboxamide]",> 6.70
4,"COc1ccc(-c2ccnc3cc(C(=O)N4CCN(C(=O)c5ccccc5OC)[C@@H](C)C4)nn23)cc1OC [Compound 317, (S)-(7-(3,4-dimethoxyphenyl)pyrazolo[1,5-a]pyrimidin-2-yl)(4-(2-methoxybenzoyl)-3-methylpiperazin-1-yl) methanone]",5.70 to 6.70
5,"CCOc1ccc(NC(=O)c2cc3nccc(-c4ccc(OC)c(F)c4)n3n2)cc1 [Compound 308, N-(4-ethoxyphenyl)-7-(3-fluoro-4-methoxyphenyl)pyrazolo [1,5-a]pyrimidine-2-carboxamide]",5.70 to 6.70
6,"COc1ccc(-c2ccnc3cc(C(=O)N4CC[C@H](O)C4)nn23)cc1OC [Compound 148, (S)-(7-(3,4-dimethoxyphenyl)pyrazolo[1,5-a]pyrimidin-2-yl)(3-hydroxypyrrolidin-1-yl)methanone]",≤ 5.70
7,"COc1ccc(-c2ccnc3cc(C(=O)N4CCCc5cc(C(=O)O)ccc54)nn23)cc1OC [Compound 233, 1-(7-(3,4-dimethoxyphenyl)pyrazolo[1,5-a]pyrimidine-2-carbonyl)-1,2,3,4-tetrahydroquinoline-6-carboxylic acid]",≤ 5.70
8,"COc1ccc(-c2ccnc3cc(C(=O)N4CCN(c5ncccn5)CC4)nn23)cc1OC [Compound 185, (7-(3,4-dimethoxyphenyl)pyrazolo[1,5-a]pyrimidin-2-yl)(4-(pyrimidin-2-yl)piperazin-1-yl)methanone]",5.70 to 6.70
9,"COc1ccc(-c2ccnc3cc(C(=O)N4CCN(C(=O)c5ccccc5F)[C@@H](C)C4)nn23)cc1OC [Compound 368, (S)-(7-(3,4-dimethoxyphenyl)pyrazolo[1,5-a]pyrimidin-2-yl)(4-(2-fluorobenzoyl)-3-methylpiperazin-1-yl)methanone]",> 6.70
10,"COc1ccc(-c2ccnc3cc(NC(=O)Nc4ccc(C(=O)O)cc4)nn23)cc1OC [Compound 107, 4-(3-(7-(3,4-dimethoxyphenyl)pyrazolo[1,5-a]pyrimidin-2-yl)ureido)benzoic acid]",≤ 5.70
11,"COC(=O)c1ccc(NC(=O)Nc2cc3nccc(-c4ccc(OC)c(OC)c4)n3n2)cc1 [Compound 93, methyl 4-(3-(7-(3,4-dimethoxyphenyl)pyrazolo[1,5-a]pyrimidin-2-yl)ureido)benzoate]",5.70 to 6.70
12,"COc1ccc(-c2ccnc3cc(C(=O)Nc4ccc(C(=O)NCCO)cc4)nn23)cc1OC [Compound 53, 7-(3,4-dimethoxyphenyl)-N-(4-((2-hydroxyethyl)carbamoyl)phenyl)pyrazolo[1,5-a] pyrimidine-2-carboxamide]",5.70 to 6.70
13,"COc1ccc(-c2ccnc3cc(C(=O)NC(=Cc4ccccc4)C(=O)O)nn23)cc1OC [Compound 108, 2-(7-(3,4-dimethoxyphenyl)pyrazolo[1,5-a]pyrimidine-2-carboxamido)-3-phenylacrylic acid]",≤ 5.70
14,"COc1ccc(-c2ccnc3cc(C(=O)Nc4ccc(N5CCN(C(C)C)CC5)cc4)nn23)cc1OC [Compound 266, 7-(3,4-dimethoxyphenyl)-N-(4-(4-isopropylpiperazin-1-yl)phenyl)pyrazolo[1,5-a]pyrimidine-2-carboxamide]",> 6.70
15,"COc1ccc(-c2ccnc3cc(C(=O)NC4CCN(C(=O)CO)CC4)nn23)cc1OC [Compound 91, 7-(3,4-dimethoxyphenyl)-N-(1-(2-hydroxyacetyl)piperidin-4-yl)pyrazolo[1,5-a]pyrimidine-2-carboxamide]",≤ 5.70
16,"COc1ccc(-c2ccnc3cc(C(=O)N4CCN(Cc5ccccc5)CC4)nn23)cc1OC [Compound 154, (4-benzylpiperazin-1-yl) (7-(3,4-dimethoxyphenyl)pyrazolo [1,5-a]pyrimidin-2-yl)methanone]",5.70 to 6.70
17,"COc1ccc(-c2ccnc3cc(C(=O)O)nn23)cc1OC [Compound 5, 7-(3,4-dimethoxyphenyl)pyrazolo[1,5-a]pyrimidine-2-carboxylic acid]",≤ 5.70
18,"O=C(Nc1ccc(O)cc1)c1cc2nccc(-c3ccc(O)c(O)c3)n2n1 [Compound 38, 7-(3,4-dihydroxyphenyl)-N-(4-hydroxyphenyl)pyrazolo [1,5-a]pyrimidine-2-carboxamide]",5.70 to 6.70

row,SMILES,pEC50
1,COc1ccc(-c2ccnc3cc(C(=O)N4CCN(C(=O)c5cc(F)ccc5F)[C@@H](C)C4)nn23)cc1OC [Compound 356],> 6.70
2,"COc1ccc(-c2ccnc3cc(C(=O)N4CCN(C(=O)c5ccccc5C)[C@@H](C)C4)nn23)cc1OC [Compound 381, (S)-(7-(3,4-dimethoxyphenyl)pyrazolo[1,5-a]pyrimidin-2-yl) (3-methyl-4-(2-methylbenzoyl)piperazin-1-yl)methanone]",> 6.70
3,"CCC[C@H]1CN(C(=O)c2cc3nccc(-c4ccc(OC)c(OC)c4)n3n2)CCN1 [Compound 373, (S)-(7-(3,4-dimethoxyphenyl)pyrazolo[1,5-a]pyrimidin-2-yl)(3-propylpiperazin-1-yl)methanone]",5.70 to 6.70
4,"Cc1cccc(-c2ccnc3cc(C(=O)Nc4ccc(N5CCOCC5)cn4)nn23)c1 [Compound 306, N-(5-morpholinopyridin-2-yl)-7-(m-tolyl)pyrazolo[1,5-a] pyrimidine-2-carboxamide]",≤ 5.70
5,"COc1ccc(-c2ccnc3cc(C(=O)N4CCc5cc(C(=O)N6CCN(C)CC6)ccc54)nn23)cc1OC [Compound 250, (7-(3,4-dimethoxyphenyl)pyrazolo[1,5-a]pyrimidin-2-yl)(5-(4-methylpiperazine-1-carbonyl)indolin-1-yl) methanone]",5.70 to 6.70
6,"CCCCOC(=O)c1ccc(NC(=O)c2cc3nccc(-c4ccc(OC)c(OC)c4)n3n2)cc1 [Compound 336, butyl 4-(7-(3,4-dimethoxyphenyl)pyrazolo[1,5-a]pyrimidine-2-carboxamido) benzoate]",5.70 to 6.70
7,"COc1ccc(-c2ccnc3cc(C(=O)N[C@H]4CC[C@@H](C(=O)OCc5ccccn5)CC4)nn23)cc1OC [Compound 247, pyridin-2-ylmethyl (1S,4S)-4-(7-(3,4-dimethoxyphenyl)pyrazolo [1,5-a]pyrimidine-2-carboxamido)cyclohexane-1-carboxylate]",5.70 to 6.70
8,"COc1ccc(-c2ccnc3cc(C(=O)Nc4ccc5c(c4)OCO5)nn23)cc1OC [Compound 310, N-(benzo[d][1,3]dioxol-5-yl)-7-(3,4-dimethoxyphenyl)pyrazolo[1,5-a]pyrimidine-2-carboxamide]",> 6.70
9,"CCN(CC)CCCNC(=O)c1ccc(NC(=O)c2cc3nccc(-c4ccc(OC)c(OC)c4)n3n2)cc1 [Compound 222, N-(4-((3-(diethylamino)propyl)carbamoyl)phenyl)-7-(3,4-dimethoxyphenyl) pyrazolo[1,5-a]pyrimidine-2-carboxamide]",≤ 5.70
10,"COc1ccc(-c2ccnc3cc(C(=O)Nc4ccc(C(=O)N[C@@H](Cc5ccccc5)C(=O)O)cc4)nn23)cc1OC [Compound 49, (4-(7-(3,4-dimethoxyphenyl)pyrazolo[1,5-a]pyrimidine-2-carboxamido)benzoyl)-L-phenylalanine]",5.70 to 6.70
11,"COc1ccc(-c2ccnc3cc(C(=O)N[C@H]4CC[C@H](C(=O)NCCN5CCOCC5)CC4)nn23)cc1OC [Compound 202, 7-(3,4-dimethoxyphenyl)-N-((1r,4r)-4-((2-morpholinoethyl)carbamoyl)cyclohexyl)pyrazolo [1,5-a]pyrimidine-2-carboxamide]",≤ 5.70
12,"COc1ccc(-c2ccnc3cc(C(=O)Nc4ccc(C(=O)OCCCN5CCCC5)cc4)nn23)cc1OC [Compound 226, 3-(pyrrolidin-1-yl)propyl 4-(7-(3,4-dimethoxyphenyl)pyrazolo [1,5-a]pyrimidine-2-carboxamido)benzoate]",≤ 5.70
13,"COc1ccc(-c2ccnc3cc(C(=O)N4C[C@@H](C)N(C(=O)c5ccccc5)[C@@H](C)C4)nn23)cc1OC [Compound 363, ((3R,5S)-4-benzoyl-3,5-dimethylpiperazin-1-yl)(7-(3,4-dimethoxyphenyl)pyrazolo[1,5-a]pyrimidin-2-yl) methanone]",> 6.70
14,"COc1ccc(-c2ccnc3cc(C(=O)Nc4ccc(C(=O)NCCN(C)C)cc4)nn23)cc1OC [Compound 118, 7-(3,4-dimethoxyphenyl)-N-(4-((2-(dimethylamino)ethyl)carbamoyl)phenyl) pyrazolo[1,5-a]pyrimidine-2-carboxamide]",≤ 5.70
15,"COC(=O)c1ccc(NC(=O)c2cc3nccc(-c4ccc(OC)cc4)n3n2)cc1 [Compound 23, methyl 4-(7-(4-methoxyphenyl)pyrazolo[1,5-a]pyrimidine-2-carboxamido)benzoate]",≤ 5.70
16,"COc1ccc(-c2ccnc3cc(C(=O)N4CCN(C(=O)C5CC5)CC4)nn23)cc1OC [Compound 110, (4-(cyclopropanecarbonyl)piperazin-1-yl)(7-(3,4-dimethoxyphenyl)pyrazolo[1,5-a]pyrimidin-2-yl)methanone]",5.70 to 6.70
17,"CCOc1ccc(NC(=O)c2cc3nccc(-c4ccc(OC)c([N+](=O)[O-])c4)n3n2)cc1 [Compound 295, N-(4-ethoxyphenyl)-7-(4-methoxy-3-nitrophenyl)pyrazolo [1,5-a]pyrimidine-2-carboxamide]",≤ 5.70
